Counter-ions that a name gives are not always drawn.
Target: IRAK4 (Homo sapiens (Human), UniProt Q9NWZ3)
Assay: IRAK4 Kinase Assay (IMAP fluorescence polarization)
Format: biochemical
Settings: 0.5 nM GST tagged IRAK4, 100 μM ATP, 30 minutes at 25° C., IMAP FP
Method: The kinase activity of IRAK4 is determined by its ability to catalyze the phosphorylation of a fluorescent polypeptide substrate. The extent of phosphorylation is measured using the IMAP technology (Molecular Devices) where the phosphorylated fluorescent substrate binds to the large M (III)-based nanoparticles which reduces the rotational speed of the substrate and thus increases its fluorescent polarization (FP).
20 μL reaction mixture contains 10 mM TriHCl, pH 7.2, 0.5 nM GST tagged IRAK4 (SignalChem), 100 nM fluorescent peptide substrate (RP7030, Molecular Devices), 100 μM ATP, 1 mM DDT, 1 mM MgCl2, and 0.01% Tween 20. The reaction is initiated by the addition of ATP. After incubation for 30 minutes at 25° C., 60 μL of Progressive IMAP Reagent (Molecular Devices) is added to stop the reaction. Change in RP7030's FP is determined by a FP reader (Analyst HT, LJL BioSystems).

Chain of IRAK4 (Q9NWZ3 whole entry): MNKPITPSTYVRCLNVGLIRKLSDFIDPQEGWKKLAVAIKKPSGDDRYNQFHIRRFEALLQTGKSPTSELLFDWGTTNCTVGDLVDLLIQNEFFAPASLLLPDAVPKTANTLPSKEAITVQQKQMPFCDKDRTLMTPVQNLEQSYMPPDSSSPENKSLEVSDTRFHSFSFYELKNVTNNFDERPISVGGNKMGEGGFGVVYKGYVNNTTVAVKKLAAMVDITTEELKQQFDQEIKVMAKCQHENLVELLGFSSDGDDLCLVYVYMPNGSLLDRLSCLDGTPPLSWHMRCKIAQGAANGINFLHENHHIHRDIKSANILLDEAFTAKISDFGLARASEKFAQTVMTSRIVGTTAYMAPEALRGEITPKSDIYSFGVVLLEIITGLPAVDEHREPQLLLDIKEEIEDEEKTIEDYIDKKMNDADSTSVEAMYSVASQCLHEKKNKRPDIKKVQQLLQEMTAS

IC50	Compound
85 nM	Cn1cc(NC(=O)c2ccc3ccc(N4C[C@@H]5CN[C@@H](C5)C4)nn23)c(C(F)(F)F)n1 (single isomer, unassigned) [Example 3, 2-[(1S,5S)- or (1R,5R)-3,6-diazabicyclo[3.2.1]oct-3-yl]-N-[1-methyl-3-(trifluoromethyl)-1H-pyrazol-4-yl]pyrrolo[1,2-b]pyridazine-7-carboxamide]
131 nM	Cn1cc(NC(=O)c2ccc3ccc(N4C[C@H]5CN[C@H](C5)C4)nn23)c(C(F)(F)F)n1 (single isomer, unassigned) [Example 4, 2-[(1S,5S)- or (1R,5R)-3,6-diazabicyclo[3.2.1]oct-3-yl]-N-[1-methyl-3-(trifluoromethyl)-1H-pyrazol-4-yl]pyrrolo[1,2-b]pyridazine-7-carboxamide]
45 nM	Cn1cc(NC(=O)c2ccc3ccc(N4C[C@@H]5CC[C@H]4CN5)nn23)c(Cl)n1 (single isomer, unassigned) [Example 33, N-(3-chloro-1-methyl-1H-pyrazol-4-yl)-2-[(1S,4S)- or (1R,4R)-2,5-diazabicyclo[2.2.2]oct-2-yl]pyrrolo[1,2-b]pyridazine-7-carboxamide trifluoroacetate]
15 nM	Cn1cc(NC(=O)c2ccc3ccc(N4C[C@H]5CC[C@@H]4CN5)nn23)c(Cl)n1 (single isomer, unassigned) [Example 34, N-(3-chloro-1-methyl-1H-pyrazol-4-yl)-2-[(1S,4S)- or (1R,4R)-2,5-diazabicyclo[2.2.2]oct-2-yl]pyrrolo[1,2-b]pyridazine-7-carboxamide trifluoroacetate]
34 nM	Cn1cc(NC(=O)c2ccc3ccc(N4C[C@@H]5CC[C@H]4CN5)nn23)c(Br)n1 (single isomer, unassigned) [Example 35, N-(3-bromo-1-methyl-1H-pyrazol-4-yl)-2-[(1S,4S)- or (1R,4R)-2,5-diazabicyclo[2.2.2]oct-2-yl]pyrrolo[1,2-b]pyridazine-7-carboxamide trifluoroacetate]
22 nM	Cn1cc(NC(=O)c2ccc3ccc(N4C[C@H]5CC[C@@H]4CN5)nn23)c(Br)n1 (single isomer, unassigned) [Example 36, N-(3-bromo-1-methyl-1H-pyrazol-4-yl)-2-[(1S,4S)- or (1R,4R)-2,5-diazabicyclo[2.2.2]oct-2-yl]pyrrolo[1,2-b]pyridazine-7-carboxamide trifluoroacetate]
3 nM	Cn1cc(NC(=O)c2ccc3ccc(N4C[C@@H]5CC[C@H]4CN5)nn23)c(C(F)F)n1 (single isomer, unassigned) [Example 37, 2-[(1S,4S)- or (1R,4R)-2,5-diazabicyclo[2.2.2]oct-2-yl]-N-[3-(difluoromethyl)-1-methyl-1H-pyrazol-4-yl]pyrrolo[1,2-b]pyridazine-7-carboxamide trifluoroacetate]
2 nM	Cn1cc(NC(=O)c2ccc3ccc(N4C[C@H]5CC[C@@H]4CN5)nn23)c(C(F)F)n1 (single isomer, unassigned) [Example 38, 2-[(1S,4S)- or (1R,4R)-2,5-diazabicyclo[2.2.2]oct-2-yl]-N-[3-(difluoromethyl)-1-methyl-1H-pyrazol-4-yl]pyrrolo[1,2-b]pyridazine-7-carboxamide trifluoroacetate]
2 nM	Cn1cc(NC(=O)c2ccc3ccc(N[C@@H]4CCCCNC4)nn23)c(C(F)(F)F)n1 (single isomer, unassigned) [Example 39, 2-[(3R)- or (3S)-azepan-3-ylamino]-N-[1-methyl-3-(trifluoromethyl)-1H-pyrazol-4-yl]pyrrolo[1,2-b]pyridazine-7-carboxamide trifluoroacetate]
2 nM	Cn1cc(NC(=O)c2ccc3ccc(N[C@H]4CCCCNC4)nn23)c(C(F)(F)F)n1 (single isomer, unassigned) [Example 40, 2-[(3R)- or (3S)-azepan-3-ylamino]-N-[1-methyl-3-(trifluoromethyl)-1H-pyrazol-4-yl]pyrrolo[1,2-b]pyridazine-7-carboxamide trifluoroacetate]
0.2 nM	Cn1cc(NC(=O)c2ccc3ccc(N[C@@H]4CCCCNC4)nn23)c(C(F)F)n1 (single isomer, unassigned) [Example 41, 2-[(3R)- or (3S)-azepan-3-ylamino]-N-[3-(difluoromethyl)-1-methyl-1H-pyrazol-4-yl]pyrrolo[1,2-b]pyridazine-7-carboxamide trifluoroacetate]
0.3 nM	Cn1cc(NC(=O)c2ccc3ccc(N[C@H]4CCCCNC4)nn23)c(C(F)F)n1 (single isomer, unassigned) [Example 42, 2-[(3R)- or (3S)-azepan-3-ylamino]-N-[3-(difluoromethyl)-1-methyl-1H-pyrazol-4-yl]pyrrolo[1,2-b]pyridazine-7-carboxamide trifluoroacetate]
25 nM	Cn1cc(NC(=O)c2ccc3ccc(N4C[C@@H]5CC[C@H]4CN5)nn23)c(C#N)n1 (single isomer, unassigned) [Example 43, N-(3-cyano-1-methyl-1H-pyrazol-4-yl)-2-[(1S,4S)- or (1R,4R)-2,5-diazabicyclo[2.2.2]oct-2-yl]pyrrolo[1,2-b]pyridazine-7-carboxamide trifluoroacetate]
50 nM	Cn1cc(NC(=O)c2ccc3ccc(N4C[C@H]5CC[C@@H]4CN5)nn23)c(C#N)n1 (single isomer, unassigned) [Example 44, N-(3-cyano-1-methyl-1H-pyrazol-4-yl)-2-[(1S,4S)- or (1R,4R)-2,5-diazabicyclo[2.2.2]oct-2-yl]pyrrolo[1,2-b]pyridazine-7-carboxamide trifluoroacetate]
4 nM	Cn1cc(NC(=O)c2ccc3ccc(N4C[C@@H]5CN[C@@H](C5)C4)nn23)c(C(F)F)n1 (single isomer, unassigned) [Example 50, 2-[(1S,5S)- or (1R,5R)-3,6-diazabicyclo[3.2.1]oct-3-yl]-N-[3-(difluoromethyl)-1-methyl-1H-pyrazol-4-yl]pyrrolo[1,2-b]pyridazine-7-carboxamide]
12 nM	Cn1cc(NC(=O)c2ccc3ccc(N4C[C@@H]5CN[C@@H](C5)C4)nn23)c(C(F)F)n1 (single isomer, unassigned) [Example 51, 2-[(1S,5S)- or (1R,5R)-3,6-diazabicyclo[3.2.1]oct-3-yl]-N-[3-(difluoromethyl)-1-methyl-1H-pyrazol-4-yl]pyrrolo[1,2-b]pyridazine-7-carboxamide]
697 nM	O=C(Nc1ccsc1Br)c1ccc2ccc(N3C[C@@H]4CC[C@H]3CN4)nn12 (single isomer, unassigned) [Example 78, N-(2-bromothiophen-3-yl)-2-[(1S,4S)- or (1R,4R)-2,5-diazabicyclo[2.2.2]oct-2-yl]pyrrolo[1,2-b]pyridazine-7-carboxamide trifluoroacetate]
192 nM	O=C(Nc1ccsc1Br)c1ccc2ccc(N3C[C@H]4CC[C@@H]3CN4)nn12 (single isomer, unassigned) [Example 79, N-(2-bromothiophen-3-yl)-2-[(1S,4S)- or (1R,4R)-2,5-diazabicyclo[2.2.2]oct-2-yl]pyrrolo[1,2-b]pyridazine-7-carboxamide trifluoroacetate]
103 nM	N#Cc1sccc1NC(=O)c1ccc2ccc(N3C[C@@H]4CC[C@H]3CN4)nn12 (single isomer, unassigned) [Example 80, N-(2-cyanothiophen-3-yl)-2-[(1S,4S)- or (1R,4R)-2,5-diazabicyclo[2.2.2]oct-2-yl]pyrrolo[1,2-b]pyridazine-7-carboxamide formate]

Source: patent US10040798B2, “Pyrrolopyridazine inhibitors of IRAK4 activity” (MERCK SHARP & DOHME CORP., priority 2015, dated 2018)
